Results on 1 compound are retold here after patent US20050228016A1, “TETRAHYDROQUINOLINES FOR MODULATING THE EXPRESSION OF EXOGENOUS GENES VIA AN ECDYSONE RECEPTOR COMPLEX” (priority 2002, published 2005).

In one data set the target is T1, DmEcR + LmUSP (Drosophila melanogaster, UniProt P34021).
T1 sequence (P34021 342-878): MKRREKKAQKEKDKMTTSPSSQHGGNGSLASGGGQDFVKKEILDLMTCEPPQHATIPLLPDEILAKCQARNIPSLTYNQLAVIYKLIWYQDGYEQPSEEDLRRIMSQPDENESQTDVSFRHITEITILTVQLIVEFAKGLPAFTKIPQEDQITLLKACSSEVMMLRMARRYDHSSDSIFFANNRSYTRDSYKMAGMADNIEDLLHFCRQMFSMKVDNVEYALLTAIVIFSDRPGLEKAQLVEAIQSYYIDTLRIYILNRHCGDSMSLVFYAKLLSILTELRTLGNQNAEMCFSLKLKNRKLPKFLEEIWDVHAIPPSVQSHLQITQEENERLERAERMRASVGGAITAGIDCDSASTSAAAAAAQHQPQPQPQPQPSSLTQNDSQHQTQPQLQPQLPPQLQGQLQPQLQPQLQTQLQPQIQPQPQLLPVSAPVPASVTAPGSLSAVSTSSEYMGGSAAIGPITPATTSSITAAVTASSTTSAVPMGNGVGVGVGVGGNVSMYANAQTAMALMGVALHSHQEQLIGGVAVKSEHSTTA
The conditions noted are these: DmEcR + LmUSP in 3T3 cells, reporter assayed 48 h after ligand.

Data set [1] concerns the target T2, Bombyx mori EcR (VP16-BmEcR, CVBE) (Bombyx mori, UniProt P49881).
T2 construct: expressed in transfected cells
T2 sequence (P49881 86-606): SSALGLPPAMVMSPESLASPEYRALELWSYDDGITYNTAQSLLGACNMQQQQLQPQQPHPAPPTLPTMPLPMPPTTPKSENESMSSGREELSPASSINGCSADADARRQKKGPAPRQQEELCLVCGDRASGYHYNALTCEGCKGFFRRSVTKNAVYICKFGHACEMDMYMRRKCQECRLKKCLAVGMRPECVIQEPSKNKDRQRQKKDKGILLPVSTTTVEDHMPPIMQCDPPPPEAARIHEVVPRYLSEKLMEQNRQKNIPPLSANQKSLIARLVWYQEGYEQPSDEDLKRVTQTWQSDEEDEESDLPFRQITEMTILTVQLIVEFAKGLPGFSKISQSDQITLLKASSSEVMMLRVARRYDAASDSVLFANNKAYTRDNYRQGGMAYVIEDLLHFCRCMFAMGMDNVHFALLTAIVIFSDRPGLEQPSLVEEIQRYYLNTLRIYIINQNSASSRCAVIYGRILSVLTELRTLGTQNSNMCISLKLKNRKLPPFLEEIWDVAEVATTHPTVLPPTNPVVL
Description: Z3 assay (HEK-293 clone Z3 with CVBE and 6x EcRE LacZ, β-galactosidase reporter). Type of data set: cell-based. The note with it: 48 h, average of two wells.

Description for DmEcR + LmUSP: To determine if any of the compounds shown in Table 1 and Table 2 can act as inducers of reporter gene activity in a transactivation assay, these compounds were tested in NIH3T3 cells transfected with pFRLUC reporter and gene expression cassettes, 1.1 to 1.8 described in Example 1. […] At 48 hr after adding ligand, the cells were harvested and reporter activity was assayed using Dual Luciferase assay kit (Promega carporation). Total relative light units (RLU) are shown. Standard methods for culture and maintenance of the cells were followed.
Transfections: DNAs corresponding to the various switch constructs outlined in Example I, specifically switches 1.1 through 1.8, were transfected into mouse NIH3T3 cells (ATCC) as follows. Cells were harvested when they reached 50% confluency and plated in 6-, 12- or 24-well plates at 125,000, 50,000, or 25,000 cells, respectively, in 2.5, 1.0, or 0.5 ml of growth medium containing 10% fetal bovine serum (FBS), respectively. The next day, the cells were rinsed with growth medium and transfected for four hours. […] For 12-well plates, 4 μl of Superfect™ was mixed with 100 μl of growth medium. 1.0 μg of reporter construct and 0.25 μg of each receptor construct of the receptor pair to be analyzed were added to the transfection mix. A second reporter construct was added [pTKRL (Promega), 0.1 μg/transfection mix] that comprises a Renilla luciferase gene operably linked and placed under the control of a thymidine kinase (TK) constitutive promoter and was used for normalization. The contents of the transfection mix were mixed in a vortex mixer and let stand at room temperature for 30 min. At the end of incubation, the transfection mix was added to the cells maintained in 400 μl growth medium. The cells were maintained at 37° C. and 5% CO2 for four hours. At the end of incubation, 500 μl of growth medium containing 20% FBS and either dimethylsulfoxide (DMSO; control) or a DMSO solution of 0.1, 1, and 10 μM ligand was added and the cells were maintained at 37° C. and 5% CO2 for 48 hours. The cells were harvested and reporter activity was assayed. The same procedure was followed for 6 and 24 well plates as well except all the reagents were doubled for 6 well plates and reduced to half for 24-well plates.
Ligands: All ligands were dissolved in DMSO and the final concentration of DMSO was maintained at 0.1% in both controls and treatments.
Reporter Assays: Cells were harvested 48 hours after adding ligands. 125, 250, or 500 μl of passive lysis buffer (part of Dual-luciferase™ reporter assay system from Promega Corporation) were added to each well of 24- or 12- or 6-well plates respectively. The plates were placed on a rotary shaker for 15 minutes. Twenty μl of lysate were assayed. Luciferase activity was measured using Dual-luciferase™ reporter assay system from Promega Corporation following the manufacturer's instructions.

`C[C@H]1C[C@H](Nc2ccc(F)cc2)c2cc(F)ccc2N1C(=O)c1ccc(F)c(C(F)(F)F)c1` (relative stereo) [Compound I-5]: the “Fold Induction (10 μM)” value at DmEcR + LmUSP (10 μM) was 8 fold. Further, the “Fold Induction (100 μM)” value at DmEcR + LmUSP (100 μM) is given as 7 fold. The “Fold Induction Average, Z3V1 Assay 33 μM” value in data set [1] was 96 fold.
